Laboratory results taken from article PMC12562379, “Facile Synthesis of N-vinylindoles via Knoevenagel Condensation: Molecular Features and Biological Activities” (International Journal of Molecular Sciences, 2025).
In brackets after ≈: the same amount, converted by molar mass.

Columns and labels:
[1] = system: SKOV-3 cells; assay: Caspase-3/7 assay (apoptosis, Muse Cell Analyzer); assay type: cell-based, human; conditions: SKOV-3, 24 h
Protocol: The SKOV-3 cells (5 × 10^5 cells/well) were seeded and incubated with compound 2i at concentrations of 2, 5, 10, 15, 30, and 60 µg/mL for 24 h. Then, the cells were stained with Muse Caspase-3/7 Kit, according to the manufacturer’s instructions. Muse Cell Analyzer and Muse 1.4 Analysis Software (Merck Millipore, Burlington, MA, USA) were used to calculate the amount of live, early apoptotic, late apoptotic, and dead cells. The results are shown as a percentage of the cells in each population obtained from two independently repeated experiments (in three repeats).

[2] = system: SKOV-3 cells; assay: Cell cycle assay (Muse Cell Analyzer); assay type: cell-based, human; conditions: SKOV-3, 48 h
Protocol: The SKOV-3 cells (5 × 10^5 cells/well) were seeded and incubated with compound 2i at concentrations of 2, 5, 10, 15, 30, and 60 µg/mL for 48 h. After treatment, Muse Cell Cycle Assay Kit and Muse Cell Analyzer (Merck Millipore, Burlington, MA, USA) were used to analyze the stained cells, according to the manufacturer’s instruction. The results are shown as percentage of the cells in each phase of cell cycle: subG0, G0/G1, S, and G2/M. The experiment was repeated in two independent repeats (in three repetitions).

[3] = system: S. aureus ATCC 6535; assay: Microbroth dilution assay; assay type: cell-based; conditions: Staphylococcus aureus, ATCC6535
[4] = system: C. glabrata ATCC 2001; assay: Microbroth dilution assay; assay type: cell-based, Candida glabrata; conditions: Nakaseomyces glabratus, ATCC2001
Protocol: The minimum inhibitory concentration (MIC) and minimum bactericidal/fungicidal concentration (MBC/MFC) of the tested compounds were determined by the microbroth dilution technique using 96-well plates based on the methodology described in the EUCAST (European Committee on Antimicrobial Susceptibility Testing) standards. Reference and clinical strains of Gram-positive (Staphylococcus aureus ATCC 6538, Staphylococuccus aureus MRSA 6347) and Gram-negative (Escherichia coli ATCC 8739) bacteria, and yeast (Candida albicans ATCC 10231, Candida glabrata ATCC 2001) were used for the assay. The studies were carried out in the Mueller–Hinton (MH) broth for bacteria and RPMI 1640 broth + MOPS (Sigma-Aldrich, Poland) buffer in the case of yeast. The dry test samples were dissolved in DMSO (dimethyl sulfoxide), resulting in a final concentration of 15 mg/mL, and then diluted in a geometric progression. Ampicillin (Sigma-Aldrich, Poland) acted as a control sample (512 to 4 µg/mL) for bacteria and ketoconazole (128 to 1 µg/mL) (Sigma-Aldrich, Poland) acted as a control sample for yeast. The cultures of microorganisms were prepared by transferring cells from the stock cultures to tubes with the appropriate broth and incubated with agitation in an aerobic atmosphere for 18 ± 2 h at 35 ± 1 °C; next, they were diluted to achieve an optical density corresponding to 5 × 105 (bacteria) or 2 × 105 (yeast) colony-forming units per mL (cfu/mL). An appropriate media (96 µL), along with the tested compounds with a final concentration range of 300–3.1 µg/mL (4 µL) and next microbial suspension (100 µL) were added to each well. Plates with samples were incubated in adequate conditions described above and microbial growth was assessed. […] (>90%; ketoconazole) but 50% (for other compounds) inhibits visible growth of yeasts. Next, as a control of microbial viability, 100 µL of the samples from each well without growth was inoculated on the MH or RPMI agar plates and incubated for 18 ± 2 h at 35 ± 1 °C and finally, the CFU was counted. The MBC/MFC was determined as the minimum concentration of compounds required to kill 99.9% the organisms.

[5] = system: HeLa, SKOV-3, AGS (and HaCaT) cell lines; assay: MTT assay, ranges stated over several cell lines; assay type: cell-based, human; conditions: for IC50: Homo sapiens
Protocol: The human ovarian SKOV-3, gastric adenocarcinoma AGS, cervical HeLa cell lines and non-cancerous keratinocytes HaCaT were obtained from the American Type Culture Collection (ATCC, Manassas, VA, USA). The cell lines were cultured in McCoy’s Medium, Dulbecco’s Modified Eagle’s Medium/F12, and DMEM, respectively (Merck Millipore, Burlington, MA, USA). Penicillin (100 units/mL), streptomycin ([…]), and 10% (v/v) fetal bovine serum (FBS) were added to all the media. The cells were incubated at 37 °C and 5% CO2.
To estimate the cytotoxic activity of the obtained compounds 2a-i, MTT assay was used. The cells (5 × 10^3 cells/well) were treated with the compounds in a range of concentrations 1–150 µg/mL. […] After 24 h, MTT solution (0.5 mg/mL) was added to the cells. Formazan crystals were dissolved in DMSO and the absorbance was measured with a microtiter plate reader (Epoch, BioTek Instruments, Winooski, VT, USA).

[6] = system: S. aureus ATCC 6535, S. aureus MRSA 12673 and other tested bacterial and yeast strains; assay: Microbroth dilution assay, ranges stated over several strains; assay type: cell-based; conditions: range over S. aureus ATCC 6535 and MRSA 12673
[7] = range over the cancer cell lines HeLa, SKOV-3 and AGS

MIC [3]: 15 µg/mL (≈ 44.5 µM)
MIC [4]: 60 µg/mL (≈ 178 µM)
MIC (range over strains) [6]: 15 to 30 µg/mL
Structure (SMILES): C(=C(\C1=NCCN1)n1ccc2ccccc21)/c1ccc2ccccc2c1 [Compound 2i, (Z)-1-[1-(4,5-dihydro-1H-imidazol-2-yl)-2-(naphthalen-2-yl)vinyl]-1H-indole]
dead cells ([1]; 2 µg/mL): 6.07 ± 0.58%
late apoptotic cells ([1]; 2 µg/mL): 11.52 ± 1.53%
dead cells ([1]; 5 µg/mL): 7.65 ± 0.61%
late apoptotic cells ([1]; 5 µg/mL): 22.72 ± 1.37%
dead cells ([1]; 10 µg/mL): 18.11 ± 1.45%
late apoptotic cells ([1]; 10 µg/mL): 48.85 ± 0.39%
dead cells ([1]; 15 µg/mL): 31.52 ± 2.68%
late apoptotic cells ([1]; 15 µg/mL): 54.94 ± 3.12%
dead cells ([1]; 30 µg/mL): 68.95 ± 2.09%
late apoptotic cells ([1]; 30 µg/mL): 28.21 ± 1.61%
dead cells ([1]; 60 µg/mL): 66.85 ± 1.96%
late apoptotic cells ([1]; 60 µg/mL): 31.87 ± 2.01%
induction of apoptosis ([1]; from 2 µg/mL to 60 µg/mL): significantly induced apoptosis
cells in subG0 phase ([2]; 2 µg/mL): 28.10 ± 4.49%
cells in subG0 phase ([2]; 5 µg/mL): 49.00 ± 0.85%
cells in subG0 phase ([2]; 10 µg/mL): 82.73 ± 1.33%
cells in subG0 phase ([2]; 15 µg/mL): 91.67 ± 0.57%
cells in subG0 phase ([2]; 30 µg/mL): 95.30 ± 1.67%
cells in subG0 phase ([2]; 60 µg/mL): 99.83 ± 0.15%
cell cycle arrest ([2]; 2–60 µg/mL, all concentrations): strongly induced cell cycle arrest in subG0 phase
MBC [3]: 30 µg/mL (≈ 88.9 µM)
MFC [4]: 60 µg/mL (≈ 178 µM)
IC50 ([5]; range over HeLa and SKOV-3 cell lines): 2.03 to 2.45 µg/mL (≈ 6.02 to 7.26 µM)
IC50 [5, 7]: 2.03 to 5.68 µg/mL (≈ 6.02 to 16.8 µM)
IC50 (range over cell lines) [5, 7]: 2.03 to 5.58 µg/mL
MBC (range over strains) [6]: 30 µg/mL (≈ 88.9 µM)
